Data on four molecules can be found in patent US7799346B2, “Method of treatment directed to agent retention in biological tissues” (Advanced Cardiovascular Systems, Inc., priority 1999, dated 2010).

The conditions of data set [1]: cited from earlier work; for pKa NH3: aminium group NH3+; for pKa CO2H: carboxyl group.
Data set [2] can be described thus: In-vitro agent retention in perfused excised vessel, fluorescent intensity of tissue sections. It is filed as in vitro ADME, porcine. From the text: The target tissue is a live excised porcine carotid. The tissue sample is perfused with buffered saline of Kerbs-henseleit Buffer (Sigma Catalog #K3753) at physiological temperature and pressure. Thereafter, the excised vessels are received in buffered saline solution. The artery segments are sutured to tubing using plastic nipple adapters and loaded into a perfusion chamber. The segments are stretched to their original lengths. In the perfusion chamber, the vessels are allowed to equilibrate for 10 minutes at 37° C. the hydrostatic pressure head above the chamber is about 100 cm.
A microporous balloon catheter is inserted through the rotating hemostatic valve (RHV) and secured. The agent used is […]. The agent is delivered through the catheter at 3.5 atm pressure for 2 minutes in both control and test samples. The amount of agent delivered is about 3 ml. Immediately following agent introduction, a barrier of Poly(amine) Barrier is delivered through the catheter in only the test samples for about 2 minutes. The total amount of barrier introduced is about 3 ml.
The test and control vessels are flushed with the buffer solution for about 15 minutes. The proximal and distal positions of the vessels are marked and the vessels are removed from the perfusion chamber and placed into a bath containing liquid nitrogen. The vessels are mounted in paraffin and sliced in 10 micron thin sections at the proximal, mid and distal portions.
The slides are observed using a fluorescent microscope. The fluorescent intensities of the sections are recorded, where fluorescence represents the presence of agent in the tissue. The resulting intensities over the length of the tissue sections are represented in the graphs in FIG. 5A showing the proximal section and FIG. 5B showing the mid section. […] The average intensity of agent in the test sample is about 1083, whereas the control intensity is about 749. Thus, a 44% increase in agent occurs with the use of the barrier. […]

Consider `N[C@@H](CSSC[C@H](N)C(=O)O)C(=O)O` [Cystine], for which, in data set [1], the “pKa NH3” value is 7.9 and the “pKa CO2H” value is 1.6.

Turning to `O=C(O)[C@@H]1C[C@@H](O)CN1` [Hydroxyproline], in data set [1], the “pKa NH3” value is 9.7 and the “pKa CO2H” value is 1.9.

In the case of `CSCC[C@H](N)C(=O)O` [Methionine], the “pKa NH3” value in data set [1] is 9.9.

For cascade blue, in data set [2], the “fluorescent intensity of agent in tissue section, Distal” value was determined as 747; the “fluorescent intensity of agent in tissue section, Mid” value turned out to be 831; the “fluorescent intensity of agent in tissue section, Proximal” value came out at 669.
